Ends that are not written are not given here. Peptide text beside a SMILES is read from it. * marks the point of attachment. Biotin = O=C1N[C@H]2[C@H](CS[C@H]2CCCCC(=O)*)N1
What was measured:
Assay in all cases: G' assay (10 uM PL peptide), results of TABLE 7 and TABLE 12
Assay type in all cases: binding
[1] = molecular target: T1, PDZ protein (GST-PDZ fusion) (Homo sapiens, UniProt Q5TCQ9)
T1 construct: made in house; host or cells: E. coli (DH5alpha, BL21 or JM109)
T1 sequence (Q5TCQ9 1-1481): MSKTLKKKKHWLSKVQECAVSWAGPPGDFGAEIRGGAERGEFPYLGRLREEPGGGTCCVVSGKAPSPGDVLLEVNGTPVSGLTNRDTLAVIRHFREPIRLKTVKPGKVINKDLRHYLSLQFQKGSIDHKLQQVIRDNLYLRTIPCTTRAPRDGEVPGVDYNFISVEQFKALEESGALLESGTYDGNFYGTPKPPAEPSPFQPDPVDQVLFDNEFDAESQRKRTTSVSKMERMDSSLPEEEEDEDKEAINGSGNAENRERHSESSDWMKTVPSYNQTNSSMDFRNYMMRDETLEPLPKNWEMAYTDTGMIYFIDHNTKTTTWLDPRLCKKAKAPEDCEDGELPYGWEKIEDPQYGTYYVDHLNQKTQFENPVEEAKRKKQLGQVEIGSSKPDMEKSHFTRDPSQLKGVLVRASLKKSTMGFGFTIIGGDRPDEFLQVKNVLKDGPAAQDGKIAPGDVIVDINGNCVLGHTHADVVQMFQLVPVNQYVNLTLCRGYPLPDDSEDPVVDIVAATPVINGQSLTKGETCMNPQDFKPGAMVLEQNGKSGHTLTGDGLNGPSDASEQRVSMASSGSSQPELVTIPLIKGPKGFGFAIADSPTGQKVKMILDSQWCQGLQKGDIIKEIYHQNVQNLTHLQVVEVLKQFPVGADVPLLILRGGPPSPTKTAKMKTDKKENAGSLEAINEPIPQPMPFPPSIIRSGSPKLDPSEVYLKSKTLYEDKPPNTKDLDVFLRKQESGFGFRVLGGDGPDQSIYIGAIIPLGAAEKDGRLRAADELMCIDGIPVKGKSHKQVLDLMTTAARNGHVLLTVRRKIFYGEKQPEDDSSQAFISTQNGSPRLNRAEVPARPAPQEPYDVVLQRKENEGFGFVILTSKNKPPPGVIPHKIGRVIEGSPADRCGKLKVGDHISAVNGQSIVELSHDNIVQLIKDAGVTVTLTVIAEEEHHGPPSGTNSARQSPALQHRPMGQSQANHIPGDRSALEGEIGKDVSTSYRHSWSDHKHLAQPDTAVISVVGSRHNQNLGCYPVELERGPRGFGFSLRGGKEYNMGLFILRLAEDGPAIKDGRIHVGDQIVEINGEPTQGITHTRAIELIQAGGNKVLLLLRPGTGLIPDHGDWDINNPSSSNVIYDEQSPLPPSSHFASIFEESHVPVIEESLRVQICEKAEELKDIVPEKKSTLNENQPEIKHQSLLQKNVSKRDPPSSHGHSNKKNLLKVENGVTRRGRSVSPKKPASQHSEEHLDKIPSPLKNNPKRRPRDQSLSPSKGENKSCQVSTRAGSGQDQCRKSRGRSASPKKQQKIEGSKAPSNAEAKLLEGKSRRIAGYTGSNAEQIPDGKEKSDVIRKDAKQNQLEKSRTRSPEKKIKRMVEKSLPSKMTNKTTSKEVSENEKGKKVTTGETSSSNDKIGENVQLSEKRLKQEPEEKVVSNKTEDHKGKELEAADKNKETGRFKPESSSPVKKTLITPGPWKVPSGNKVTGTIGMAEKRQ
Summary of the method: (§1)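 Binding classes derive from A450 nm of bound biotin-tagged PL peptide. A score of 5 needs A450 above 4 in more than two repeats.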

[2] = tested on: PDZ protein (GST-PDZ fusion)
Summary of the method: as §1

[3] = molecular target: T2, PDZ protein (GST-PDZ fusion) (Homo sapiens, UniProt Q6P0Q8)
T2 construct: made in house; host or cells: E. coli (DH5alpha, BL21 or JM109)
T2 sequence (Q6P0Q8 whole entry, the tested form may be a part): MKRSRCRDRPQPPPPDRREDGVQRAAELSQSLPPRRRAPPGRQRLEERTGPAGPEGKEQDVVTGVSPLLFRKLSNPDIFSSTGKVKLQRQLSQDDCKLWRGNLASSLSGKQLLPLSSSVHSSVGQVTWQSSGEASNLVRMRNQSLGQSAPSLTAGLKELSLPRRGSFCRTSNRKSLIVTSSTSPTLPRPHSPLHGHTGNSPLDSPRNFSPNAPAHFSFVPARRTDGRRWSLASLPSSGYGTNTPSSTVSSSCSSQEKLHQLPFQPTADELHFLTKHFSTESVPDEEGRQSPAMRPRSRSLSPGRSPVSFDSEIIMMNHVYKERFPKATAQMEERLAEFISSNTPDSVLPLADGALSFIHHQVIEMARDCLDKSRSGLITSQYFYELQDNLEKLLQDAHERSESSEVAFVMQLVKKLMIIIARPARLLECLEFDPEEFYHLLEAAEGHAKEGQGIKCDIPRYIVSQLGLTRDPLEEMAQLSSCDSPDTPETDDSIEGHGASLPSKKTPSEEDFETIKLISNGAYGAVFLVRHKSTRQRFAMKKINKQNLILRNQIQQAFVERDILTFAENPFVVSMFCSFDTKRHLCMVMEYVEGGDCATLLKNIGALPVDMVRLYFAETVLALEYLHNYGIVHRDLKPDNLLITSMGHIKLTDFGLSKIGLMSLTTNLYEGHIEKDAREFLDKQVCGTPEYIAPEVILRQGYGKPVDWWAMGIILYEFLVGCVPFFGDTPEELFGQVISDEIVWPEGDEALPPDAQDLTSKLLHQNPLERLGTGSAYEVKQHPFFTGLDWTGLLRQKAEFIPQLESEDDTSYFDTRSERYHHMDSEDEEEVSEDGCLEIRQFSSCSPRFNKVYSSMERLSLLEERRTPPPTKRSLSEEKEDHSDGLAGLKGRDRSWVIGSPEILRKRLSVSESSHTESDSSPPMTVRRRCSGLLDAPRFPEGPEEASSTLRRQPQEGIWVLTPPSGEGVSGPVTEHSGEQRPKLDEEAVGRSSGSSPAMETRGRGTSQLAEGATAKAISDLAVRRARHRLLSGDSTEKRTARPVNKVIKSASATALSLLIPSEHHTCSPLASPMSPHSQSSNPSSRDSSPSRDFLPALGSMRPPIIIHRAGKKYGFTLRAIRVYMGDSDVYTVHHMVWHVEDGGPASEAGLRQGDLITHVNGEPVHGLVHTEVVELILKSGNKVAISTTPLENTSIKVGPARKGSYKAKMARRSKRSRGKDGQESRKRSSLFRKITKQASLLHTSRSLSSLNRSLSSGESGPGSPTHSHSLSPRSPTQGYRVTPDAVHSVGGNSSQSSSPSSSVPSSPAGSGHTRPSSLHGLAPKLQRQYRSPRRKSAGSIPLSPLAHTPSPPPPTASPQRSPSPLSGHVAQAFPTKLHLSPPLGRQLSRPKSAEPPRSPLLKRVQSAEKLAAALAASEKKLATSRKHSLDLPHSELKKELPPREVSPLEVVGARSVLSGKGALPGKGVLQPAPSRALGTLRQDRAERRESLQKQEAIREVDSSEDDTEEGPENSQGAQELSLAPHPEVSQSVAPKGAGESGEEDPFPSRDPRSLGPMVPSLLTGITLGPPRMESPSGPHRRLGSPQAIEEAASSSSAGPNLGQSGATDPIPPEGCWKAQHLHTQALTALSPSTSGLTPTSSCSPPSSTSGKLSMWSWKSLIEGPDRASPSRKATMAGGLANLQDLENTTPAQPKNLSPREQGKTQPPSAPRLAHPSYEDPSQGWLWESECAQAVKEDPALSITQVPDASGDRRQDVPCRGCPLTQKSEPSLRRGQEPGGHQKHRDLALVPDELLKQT
Summary of the method: as §1

[4] = molecular target: T3, PDZ protein (GST-PDZ fusion) (Homo sapiens, UniProt O75970)
T3 construct: made in house; host or cells: E. coli (DH5alpha, BL21 or JM109)
T3 sequence (O75970 whole entry, the tested form may be a part): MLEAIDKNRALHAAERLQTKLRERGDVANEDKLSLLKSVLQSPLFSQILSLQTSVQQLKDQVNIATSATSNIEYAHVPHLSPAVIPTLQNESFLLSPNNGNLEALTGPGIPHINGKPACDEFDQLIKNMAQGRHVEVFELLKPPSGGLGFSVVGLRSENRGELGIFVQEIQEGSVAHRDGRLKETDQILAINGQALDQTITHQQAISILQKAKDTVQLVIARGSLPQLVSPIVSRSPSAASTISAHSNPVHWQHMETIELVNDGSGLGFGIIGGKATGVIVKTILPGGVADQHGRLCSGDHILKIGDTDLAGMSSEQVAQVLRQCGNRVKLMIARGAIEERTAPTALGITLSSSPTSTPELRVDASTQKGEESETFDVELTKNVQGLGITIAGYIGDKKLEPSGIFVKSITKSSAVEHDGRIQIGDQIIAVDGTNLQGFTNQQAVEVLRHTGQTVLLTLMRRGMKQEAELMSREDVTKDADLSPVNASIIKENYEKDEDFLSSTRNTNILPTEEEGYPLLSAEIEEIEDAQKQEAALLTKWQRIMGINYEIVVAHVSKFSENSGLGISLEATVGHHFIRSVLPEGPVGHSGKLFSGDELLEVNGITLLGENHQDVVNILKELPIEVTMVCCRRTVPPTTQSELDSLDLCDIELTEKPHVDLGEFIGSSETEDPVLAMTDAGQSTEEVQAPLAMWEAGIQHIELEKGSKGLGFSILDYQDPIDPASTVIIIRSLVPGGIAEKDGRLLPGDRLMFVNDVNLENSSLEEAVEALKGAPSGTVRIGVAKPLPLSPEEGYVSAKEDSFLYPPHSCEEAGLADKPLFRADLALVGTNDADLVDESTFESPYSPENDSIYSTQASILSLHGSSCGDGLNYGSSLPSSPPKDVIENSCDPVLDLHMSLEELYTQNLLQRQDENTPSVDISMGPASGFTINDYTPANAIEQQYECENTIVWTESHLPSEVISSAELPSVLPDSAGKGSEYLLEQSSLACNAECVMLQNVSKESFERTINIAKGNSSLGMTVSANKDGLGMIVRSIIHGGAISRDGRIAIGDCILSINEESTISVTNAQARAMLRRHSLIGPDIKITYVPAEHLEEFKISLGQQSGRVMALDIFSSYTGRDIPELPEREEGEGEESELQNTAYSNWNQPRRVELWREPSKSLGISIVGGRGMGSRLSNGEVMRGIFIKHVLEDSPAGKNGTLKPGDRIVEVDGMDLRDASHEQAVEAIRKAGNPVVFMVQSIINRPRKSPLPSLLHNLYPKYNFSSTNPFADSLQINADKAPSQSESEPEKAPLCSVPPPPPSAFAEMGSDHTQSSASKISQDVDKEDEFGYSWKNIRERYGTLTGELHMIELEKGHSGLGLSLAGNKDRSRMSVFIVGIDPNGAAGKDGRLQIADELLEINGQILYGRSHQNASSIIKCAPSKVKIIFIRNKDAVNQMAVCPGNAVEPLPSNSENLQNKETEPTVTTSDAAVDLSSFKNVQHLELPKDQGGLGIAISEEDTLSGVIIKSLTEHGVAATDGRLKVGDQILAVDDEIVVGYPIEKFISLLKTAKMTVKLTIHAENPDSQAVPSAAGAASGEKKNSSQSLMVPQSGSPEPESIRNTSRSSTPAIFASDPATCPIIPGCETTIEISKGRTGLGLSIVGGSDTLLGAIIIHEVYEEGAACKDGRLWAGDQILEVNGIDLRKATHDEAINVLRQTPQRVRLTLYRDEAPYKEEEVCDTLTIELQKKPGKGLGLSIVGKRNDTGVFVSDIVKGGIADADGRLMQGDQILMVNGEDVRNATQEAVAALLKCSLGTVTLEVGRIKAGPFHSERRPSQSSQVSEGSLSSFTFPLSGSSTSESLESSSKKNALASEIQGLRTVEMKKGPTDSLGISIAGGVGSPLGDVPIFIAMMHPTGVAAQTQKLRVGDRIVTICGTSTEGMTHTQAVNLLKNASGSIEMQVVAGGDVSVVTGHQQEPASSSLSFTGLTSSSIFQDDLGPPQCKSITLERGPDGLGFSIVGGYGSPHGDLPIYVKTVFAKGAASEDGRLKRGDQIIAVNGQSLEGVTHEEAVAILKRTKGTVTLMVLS
Summary of the method: as §1

[5] = PDZ KIAA807, PDZ Domain not given

RNIEEVYVGGKQVVPFSSSV (Biotin-RNIEEVYVGGKQVVPFSSSV) [Nedasin (s-form)]
Classification ([1]; PDZ KIAA1634, PDZ Domain 1): 1 (A450 nm 0-1) | Classification ([2]; PDZ BAI-1, PDZ Domain 2): 1 (A450 nm 0-1) | Classification ([2]; PDZ BAI-1, PDZ Domain 6): 1 (A450 nm 0-1) | Classification ([3]; PDZ KIAA807 (domain not given)): 2 (A450 nm 1-2)

CC[C@H](C)[C@H](NC(=O)[C@H](CO)NC(=O)[C@H](CCC(=O)O)NC(=O)[C@H](Cc1ccc(O)cc1)NC(=O)[C@H](CC(=O)O)NC(=O)[C@H](CC(N)=O)NC(=O)[C@H](CCC(=O)O)NC(=O)[C@H](CCCCN)NC(=O)CCCC[C@@H]1SC[C@@H]2NC(=O)N[C@@H]21)C(=O)N[C@@H](CO)C(=O)N[C@@H](CC(=O)O)C(=O)N[C@@H](CC(C)C)C(=O)N[C@@H](CCC(N)=O)C(=O)N[C@@H](CCC(N)=O)C(=O)NCC(=O)N[C@@H](CCCNC(=N)N)C(=O)N[C@@H](CC(=O)O)C(=O)N[C@H](C(=O)N[C@H](C(=O)N[C@@H](CCCNC(=N)N)C(=O)N[C@@H](CC(C)C)C(=O)O)[C@@H](C)O)[C@@H](C)CC [PAG] (Biotin-KENDYESISDLQQGRDITRL-OH; C-terminus assumed)
Classification ([2]; PDZ FLJ 00011, PDZ Domain 1): 3 (A450 nm 2-3) | Classification ([2]; PDZ SHANK, PDZ Domain 1): 4 (A450 nm 3-4)

CC[C@H](C)[C@H](NC(=O)[C@H](CCC(=O)O)NC(=O)[C@H](CO)NC(=O)[C@H](CCC(=O)O)NC(=O)[C@H](CCCNC(=N)N)NC(=O)[C@H](CCCNC(=N)N)NC(=O)[C@H](CC(C)C)NC(=O)[C@@H]1CCCN1C(=O)[C@H](CCCNC(=N)N)NC(=O)[C@@H]1CCCN1C(=O)[C@H](CCC(=O)O)NC(=O)[C@H](CC(C)C)NC(=O)[C@@H]1CCCN1C(=O)[C@@H](NC(=O)[C@H](CO)NC(=O)[C@H](C)NC(=O)[C@H](CCC(N)=O)NC(=O)[C@H](CC(N)=O)NC(=O)[C@H](Cc1c[nH]cn1)NC(=O)[C@H](CC(C)C)NC(=O)CCCC[C@@H]1SC[C@@H]2NC(=O)N[C@@H]21)C(C)C)C(=O)O [Kir2.1 (inwardly rect. K+ channel)] (Biotin-LHNQASVPLEPRPLRRESEI-OH; C-terminus assumed)
Classification ([1]; PDZ KIAA1634, PDZ Domain 1): 1 (A450 nm 0-1)

LASKSAEEGKQIPDSLSTDL (Biotin-LASKSAEEGKQIPDSLSTDL) [Dock2]
Classification ([1]; PDZ KIAA1634, PDZ Domain 5): 1 (A450 nm 0-1) | Classification ([2]; PDZ BAI-1, PDZ Domain 6): 1 (A450 nm 0-1) | Classification ([2]; PDZ HEMBA 1003117, PDZ Domain 1): 1 (A450 nm 0-1) | Classification ([2]; PDZ SHANK, PDZ Domain 1): 1 (A450 nm 0-1)

LNETTETQRTLLNGDLQTSI (Biotin-LNETTETQRTLLNGDLQTSI) [SSTR2 (somatostatin recepor 2)]
Classification ([2]; PDZ SHANK, PDZ Domain 1): 1 (A450 nm 0-1) | Classification ([3]; PDZ KIAA0807(S), PDZ Domain 1): 2 (A450 nm 1-2) | Classification [3, 5]: 2 (A450 nm 1-2)

CC[C@H](C)[C@H](NC(=O)[C@H](C)NC(=O)[C@H](CC(C)C)NC(=O)[C@H](Cc1c[nH]c2ccccc12)NC(=O)[C@H](Cc1c[nH]cn1)NC(=O)[C@H](CCC(N)=O)NC(=O)[C@H](CC(C)C)NC(=O)[C@H](CCC(N)=O)NC(=O)[C@H](Cc1ccccc1)NC(=O)[C@H](CCC(N)=O)NC(=O)[C@H](CCCNC(=N)N)NC(=O)[C@@H](NC(=O)[C@H](CC(=O)O)NC(=O)[C@H](CCCNC(=N)N)NC(=O)[C@H](CCC(N)=O)NC(=O)[C@H](C)NC(=O)[C@@H](NC(=O)[C@H](CC(C)C)NC(=O)[C@H](Cc1c[nH]cn1)NC(=O)[C@H](Cc1c[nH]cn1)NC(=O)CCCC[C@@H]1SC[C@@H]2NC(=O)N[C@@H]21)C(C)C)[C@@H](C)CC)C(=O)O [noradrenaline transporter] (Biotin-HHLVAQRDIRQFQLQHWLAI-OH; C-terminus assumed)
Classification ([4]; PDZ MUPP-1, PDZ Domain 3): 4 (A450 nm 3-4) | Classification ([4]; PDZ MUPP-1, PDZ Domain 7): 3 (A450 nm 2-3) | Classification ([4]; PDZ MUPP-1, PDZ Domain 9): 3 (A450 nm 2-3)

KTMPAATYRLLTGQEQPVYL (Biotin-KTMPAATYRLLTGQEQPVYL) [MINT-3]
Classification ([4]; PDZ MUPP-1, PDZ Domain 3): 1 (A450 nm 0-1) | Classification ([4]; PDZ MUPP-1, PDZ Domain 11): 2 (A450 nm 1-2) | Classification ([2]; PDZ LIM Protein, PDZ Domain 1): 1 (A450 nm 0-1) | Classification ([3]; PDZ KIAA0807(S), PDZ Domain 1): 1 (A450 nm 0-1) | Classification [3, 5]: 1 (A450 nm 0-1)

GGGGGSGGGGGSGIESVKI [GLUR2 (glutamate receptor 2-modified)]
Classification ([1]; PDZ KIAA1634, PDZ Domain 1): 4 (A450 nm 3-4) | Classification ([3]; PDZ KIAA0807(S), PDZ Domain 1): 1 (A450 nm 0-1)

CKR5_HUMAN (ERASSVYTRSTGEQEISVGL)
Classification ([1]; PDZ KIAA1634, PDZ Domain 1): 1 (A450 nm 0-1)

CC[C@H](C)[C@H](NC(=O)CNC(=O)[C@H](CO)NC(=O)[C@H](Cc1ccccc1)NC(=O)[C@@H](NC(=O)[C@H](CS)NC(=O)CNC(=O)CNC(=O)[C@H](C)NC(=O)[C@@H]1CCCN1C(=O)[C@@H](NC(=O)[C@@H]1CCCN1C(=O)CCCC[C@@H]1SC[C@@H]2NC(=O)N[C@@H]21)[C@@H](C)CC)[C@@H](C)O)C(=O)N[C@@H](Cc1ccccc1)C(=O)N1CCC[C@H]1C(=O)N[C@H](C(=O)N[C@@H](CC(C)C)C(=O)N[C@H](C(=O)N[C@@H](CO)C(=O)N1CCC[C@H]1C(=O)N[C@@H](CC(C)C)C(=O)O)[C@@H](C)O)[C@@H](C)O [KIA 1481] (Biotin-PIPAGGCTFSGIFPTLTSPL-OH; C-terminus assumed)
Classification ([1]; PDZ KIAA1634, PDZ Domain 1): 2 (A450 nm 1-2) | Classification ([1]; PDZ KIAA1634, PDZ Domain 2): 1 (A450 nm 0-1) | Classification ([1]; PDZ KIAA1634, PDZ Domain 5): 1 (A450 nm 0-1) | Classification ([2]; PDZ BAI-1, PDZ Domain 2): 2 (A450 nm 1-2) | Classification ([2]; PDZ BAI-1, PDZ Domain 4): 1 (A450 nm 0-1) | Classification ([2]; PDZ BAI-1, PDZ Domain 5): 3 (A450 nm 2-3) | Classification ([2]; PDZ BAI-1, PDZ Domain 6): 2 (A450 nm 1-2) | Classification ([2]; PDZ FLJ00011 (also printed FLJ 00011), PDZ Domain 1): 2 (A450 nm 1-2) | Classification ([2]; PDZ Novel PDZ, PDZ Domain 1): 1 (A450 nm 0-1) | Classification ([2]; PDZ Novel PDZ, PDZ Domain 2): 1 (A450 nm 0-1) | Classification ([2]; PDZ SHANK, PDZ Domain 1): 5 (A450 nm of 4 more than 2× repeated) | Classification ([3]; PDZ KIAA0807(S), PDZ Domain 1): 5 (A450 nm of 4 more than 2× repeated) | Classification [3, 5]: 5 (A450 nm of 4 more than 2× repeated)

ARHRVTSYTSSSVNVSSNL (Biotin-ARHRVTSYTSSSVNVSSNL) [IL-8RB]
Classification ([4]; PDZ MUPP-1, PDZ Domain 13): 1 (A450 nm 0-1) | Classification ([1]; PDZ KIAA1634, PDZ Domain 1): 1 (A450 nm 0-1) | Classification ([1]; PDZ KIAA1634, PDZ Domain 5): 1 (A450 nm 0-1) | Classification ([2]; PDZ BAI-1, PDZ Domain 2): 1 (A450 nm 0-1) | Classification ([2]; PDZ BAI-1, PDZ Domain 6): 1 (A450 nm 0-1) | Classification ([2]; PDZ Novel PDZ, PDZ Domain 2): 1 (A450 nm 0-1)

ALVLIAFCIIRRRPSAYQAL (Biotin-ALVLIAFCIIRRRPSAYQAL) [CD68]
Classification ([1]; PDZ KIAA1634, PDZ Domain 1): 2 (A450 nm 1-2) | Classification ([2]; PDZ BAI-1, PDZ Domain 2): 3 (A450 nm 2-3) | Classification ([2]; PDZ SHANK, PDZ Domain 1): 1 (A450 nm 0-1) | Classification ([3]; PDZ KIAA0807(S), PDZ Domain 1): 5 (A450 nm of 4 more than 2× repeated)

PPATPSPRLALPAHHNATRL (Biotin-PPATPSPRLALPAHHNATRL) [Na+/Pi cotransporter 2]
Classification ([4]; PDZ MUPP-1, PDZ Domain 10): 1 (A450 nm 0-1) | Classification ([4]; PDZ MUPP-1, PDZ Domain 13): 1 (A450 nm 0-1) | Classification ([2]; PDZ SHANK, PDZ Domain 1): 5 (A450 nm of 4 more than 2× repeated) | Classification ([3]; PDZ KIAA0807(S), PDZ Domain 1): 5 (A450 nm of 4 more than 2× repeated) | Classification [3, 5]: 5 (A450 nm of 4 more than 2× repeated)

QATSRNGHSARQHVVADTEL (Biotin-QATSRNGHSARQHVVADTEL) [CD34]
Classification ([1]; PDZ KIAA1634, PDZ Domain 5): 1 (A450 nm 0-1) | Classification ([2]; PDZ BAI-1, PDZ Domain 6): 1 (A450 nm 0-1) | Classification ([2]; PDZ SHANK, PDZ Domain 1): 1 (A450 nm 0-1)
